This is an account of results in ChEMBL document CHEMBL2029295, “Discovery and optimization of a potent and selective triazolopyridinone series of c-Met inhibitors” (Bioorg Med Chem Lett, 2012).

A short description of series [1]: Solubility of the compound in 0.1N HCl. The series is classed as physicochemical.
Series [2] in a line: Solubility of the compound in phosphate buffered saline. The series is classed as physicochemical.
Series [3] is described as follows: Solubility of the compound in simulated intestinal fluid. The series is classed as physicochemical.
For series [4], the target named is Vascular endothelial growth factor receptor 2 (Homo sapiens) (UniProt P35968). Put plainly: Inhibition of VEGFR2 assessed as remaining activity at 1 uM relative to control.
Series [5] has as its target Mast/stem cell growth factor receptor Kit (Homo sapiens) (UniProt P10721). Put plainly: Inhibition of KIT assessed as remaining activity at 1 uM relative to control.
The target of series [6] is Platelet-derived growth factor receptor beta (Homo sapiens) (UniProt P09619). Put plainly: Inhibition of PDGFRB assessed as remaining activity at 1 uM relative to control.
Series [7] can be described thus: Intrinsic clearance in rat liver microsomes. It counts as ADME, Microsome. Particulars: read-out: CLH. Background: Liver microsomes are vesicles of endoplasmic reticulum, rich in cytochrome P450 enzymes.
The nature of series [8]: Intrinsic clearance in mouse liver microsomes. It counts as ADME, Microsome. Particulars: read-out: CLH.
A short description of series [9]: Intrinsic clearance in human liver microsomes. The series is classed as ADME, Microsome. Particulars: read-out: CLH.
Series [10] can be described thus: Plasma protein binding in rat by equilibrium dialysis. The series is classed as ADME, cell-free. Conditions: read-out: PPB (converted).
The nature of series [11]: Plasma protein binding in mouse by equilibrium dialysis. The series is classed as ADME, cell-free. Conditions: read-out: PPB (converted). On the technique in general: Equilibrium dialysis compares concentrations on both sides of a semipermeable membrane.
Series [12] in a line: Plasma protein binding in human by equilibrium dialysis. Particulars: read-out: PPB (converted). It counts as ADME, cell-free.
Series [13] can be described thus: Clearance in Sprague-Dawley rat at 0.25 mg/kg, iv. It counts as ADME, organism-based. Further details: dose 0.25 mg/kg, route intravenous. Conditions: in vivo.
The nature of series [14]: Volume of distribution at steady state in Sprague-Dawley rat at 0.25 mg/kg, iv. Conditions: in vivo, read-out: Vdss. The series is classed as ADME, organism-based. Further details: dose 0.25 mg/kg, route intravenous.
A short description of series [15]: Half life in Sprague-Dawley rat at 0.25 mg/kg, iv. It counts as ADME, organism-based. Further details: dose 0.25 mg/kg, route intravenous. Conditions: in vivo.
A short description of series [16]: AUC (0 to infinity) in Sprague-Dawley rat at 2 mg/kg, po. It counts as ADME, organism-based. Further details: time infinity, dose 2 mg/kg, route oral. Conditions: plasma.
Series [17] in a line: Oral bioavailability in Sprague-Dawley rat at 2 mg/kg. Conditions: in vivo. The series is classed as ADME, organism-based.
The test system of a further series is Mus musculus. Put plainly: Inhibition of HGF-induced phosphorylation of c-Met in BALB/c mice mouse liver at 10 mg/kg, po administered 1 to 24 hrs before HGF-induction measured after 5 mins. It counts as functional.
A further series has as its system Plasma. The experiment in a line: Plasma concentration in BALB/c mouse at 10 mg/kg, po. It counts as ADME, organism-based. Further details: dose 10 mg/kg, route oral. Conditions: in vivo.

The term solubility denotes the dissolved amount per volume that the medium holds. Read a low solubility as a poorly soluble substance. As usually defined, the clearance is a measure of how efficiently the substance is removed, as volume per time. Usually half-life stands for the time needed for the level to fall by half in the phase considered. Lower therefore signals rapid decline. In general, AUC(0-inf) refers to total exposure, with the tail of the curve extrapolated. Low readings indicate low exposure, high ones high exposure. The term bioavailability denotes the share of a dose that reaches the circulation, judged against a reference dose that is usually intravenous. By inhibition in vivo is commonly meant the percentage by which the read-out fell short of the control. Low values mean little suppression, high ones strong suppression.

Converted amounts (≈) assume the structure as drawn.

Chain of Platelet-derived growth factor receptor beta (Homo sapiens) (P09619 whole entry): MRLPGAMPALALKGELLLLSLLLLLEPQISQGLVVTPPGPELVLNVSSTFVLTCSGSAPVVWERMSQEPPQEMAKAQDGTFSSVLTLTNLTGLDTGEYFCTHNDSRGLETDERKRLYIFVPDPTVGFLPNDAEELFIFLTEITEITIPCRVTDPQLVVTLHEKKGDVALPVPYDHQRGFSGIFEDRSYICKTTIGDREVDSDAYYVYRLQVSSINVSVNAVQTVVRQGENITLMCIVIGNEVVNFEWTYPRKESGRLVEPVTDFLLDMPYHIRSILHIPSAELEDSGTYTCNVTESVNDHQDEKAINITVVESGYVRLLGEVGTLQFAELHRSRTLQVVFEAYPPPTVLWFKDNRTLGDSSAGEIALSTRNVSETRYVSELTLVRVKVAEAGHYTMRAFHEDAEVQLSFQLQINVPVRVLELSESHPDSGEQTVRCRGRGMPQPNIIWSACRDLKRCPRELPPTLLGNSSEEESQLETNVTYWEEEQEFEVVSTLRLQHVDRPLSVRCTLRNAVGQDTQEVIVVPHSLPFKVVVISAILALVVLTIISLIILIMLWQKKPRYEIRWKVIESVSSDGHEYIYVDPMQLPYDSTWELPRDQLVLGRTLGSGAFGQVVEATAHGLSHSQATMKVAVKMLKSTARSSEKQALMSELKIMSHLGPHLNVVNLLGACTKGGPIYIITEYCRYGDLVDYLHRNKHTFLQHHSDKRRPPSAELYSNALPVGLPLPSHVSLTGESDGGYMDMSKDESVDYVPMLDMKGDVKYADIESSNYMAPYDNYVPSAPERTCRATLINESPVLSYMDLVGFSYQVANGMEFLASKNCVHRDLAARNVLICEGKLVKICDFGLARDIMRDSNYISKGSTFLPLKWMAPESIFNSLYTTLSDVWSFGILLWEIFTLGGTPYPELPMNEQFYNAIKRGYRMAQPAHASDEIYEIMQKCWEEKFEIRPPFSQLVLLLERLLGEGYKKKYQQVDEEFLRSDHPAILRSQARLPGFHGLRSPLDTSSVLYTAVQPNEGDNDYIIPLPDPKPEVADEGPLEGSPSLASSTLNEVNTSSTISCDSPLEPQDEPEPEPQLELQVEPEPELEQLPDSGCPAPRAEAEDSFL
Chain of Vascular endothelial growth factor receptor 2 (Homo sapiens) (P35968 whole entry): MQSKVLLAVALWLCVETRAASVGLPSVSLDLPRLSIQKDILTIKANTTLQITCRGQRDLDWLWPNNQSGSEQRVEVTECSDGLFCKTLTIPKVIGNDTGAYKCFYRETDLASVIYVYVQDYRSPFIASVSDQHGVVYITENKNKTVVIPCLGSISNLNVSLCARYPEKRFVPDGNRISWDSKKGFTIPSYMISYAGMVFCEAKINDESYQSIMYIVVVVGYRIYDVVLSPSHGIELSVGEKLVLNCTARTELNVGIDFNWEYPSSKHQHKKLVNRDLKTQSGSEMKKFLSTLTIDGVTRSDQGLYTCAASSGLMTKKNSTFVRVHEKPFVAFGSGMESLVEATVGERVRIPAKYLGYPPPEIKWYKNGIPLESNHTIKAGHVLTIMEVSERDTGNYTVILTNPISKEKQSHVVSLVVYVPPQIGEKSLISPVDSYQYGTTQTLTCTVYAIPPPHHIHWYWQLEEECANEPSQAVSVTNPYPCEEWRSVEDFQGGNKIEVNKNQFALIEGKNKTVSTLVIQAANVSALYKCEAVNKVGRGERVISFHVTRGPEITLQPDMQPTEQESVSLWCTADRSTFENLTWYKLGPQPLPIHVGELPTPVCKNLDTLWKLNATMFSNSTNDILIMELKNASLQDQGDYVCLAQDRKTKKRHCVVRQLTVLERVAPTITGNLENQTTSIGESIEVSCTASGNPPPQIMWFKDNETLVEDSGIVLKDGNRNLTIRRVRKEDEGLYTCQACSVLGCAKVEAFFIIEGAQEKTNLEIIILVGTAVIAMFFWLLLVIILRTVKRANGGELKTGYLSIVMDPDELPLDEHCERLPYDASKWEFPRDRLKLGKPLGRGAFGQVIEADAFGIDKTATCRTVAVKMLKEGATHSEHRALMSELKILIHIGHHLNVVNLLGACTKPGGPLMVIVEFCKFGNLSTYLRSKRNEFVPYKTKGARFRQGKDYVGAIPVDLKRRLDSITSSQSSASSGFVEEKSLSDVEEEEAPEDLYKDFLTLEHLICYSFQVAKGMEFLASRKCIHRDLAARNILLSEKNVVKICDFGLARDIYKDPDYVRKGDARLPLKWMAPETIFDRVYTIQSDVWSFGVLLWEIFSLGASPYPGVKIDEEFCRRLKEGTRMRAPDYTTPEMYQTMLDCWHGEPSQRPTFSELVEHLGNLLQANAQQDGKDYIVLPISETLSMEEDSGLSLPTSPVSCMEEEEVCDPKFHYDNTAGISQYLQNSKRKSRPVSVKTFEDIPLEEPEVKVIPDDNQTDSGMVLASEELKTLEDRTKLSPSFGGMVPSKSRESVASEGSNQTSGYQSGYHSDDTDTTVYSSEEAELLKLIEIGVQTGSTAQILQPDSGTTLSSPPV
Chain of Mast/stem cell growth factor receptor Kit (Homo sapiens) (P10721 whole entry): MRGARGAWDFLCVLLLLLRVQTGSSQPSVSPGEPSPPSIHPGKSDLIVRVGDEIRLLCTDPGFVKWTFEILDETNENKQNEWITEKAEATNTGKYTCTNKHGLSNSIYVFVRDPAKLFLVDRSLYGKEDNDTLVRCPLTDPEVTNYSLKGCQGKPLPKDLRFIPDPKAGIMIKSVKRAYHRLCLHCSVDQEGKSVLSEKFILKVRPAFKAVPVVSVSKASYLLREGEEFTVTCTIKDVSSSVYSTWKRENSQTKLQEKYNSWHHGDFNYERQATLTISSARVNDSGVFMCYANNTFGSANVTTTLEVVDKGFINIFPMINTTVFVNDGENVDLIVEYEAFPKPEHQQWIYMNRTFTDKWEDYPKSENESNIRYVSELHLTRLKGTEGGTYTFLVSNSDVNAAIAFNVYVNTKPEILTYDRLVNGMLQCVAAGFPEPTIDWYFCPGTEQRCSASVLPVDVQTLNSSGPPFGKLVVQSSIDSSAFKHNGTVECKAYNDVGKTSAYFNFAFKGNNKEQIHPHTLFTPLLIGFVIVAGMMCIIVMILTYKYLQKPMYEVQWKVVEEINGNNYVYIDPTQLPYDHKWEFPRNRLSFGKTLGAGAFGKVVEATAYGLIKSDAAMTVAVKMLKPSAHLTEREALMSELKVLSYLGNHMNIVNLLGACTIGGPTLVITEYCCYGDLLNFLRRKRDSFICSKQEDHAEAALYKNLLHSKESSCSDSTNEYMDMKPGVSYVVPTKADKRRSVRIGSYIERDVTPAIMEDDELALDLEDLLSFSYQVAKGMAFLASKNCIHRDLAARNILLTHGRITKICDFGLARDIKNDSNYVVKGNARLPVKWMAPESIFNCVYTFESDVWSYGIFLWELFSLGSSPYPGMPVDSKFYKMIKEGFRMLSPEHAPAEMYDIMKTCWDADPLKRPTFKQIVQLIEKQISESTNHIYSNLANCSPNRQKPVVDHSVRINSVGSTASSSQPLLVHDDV

For the compound `Cc1cc(-n2ccc3nnn(Cc4ccc5ncccc5c4)c3c2=O)sn1`, the results for the solubility in [1], in [2] and in [3] were 80.1 µg/mL (≈ 214 µM), less than 1 µg/mL and 4.8 µg/mL (≈ 12.8 µM), respectively.

In the case of `COCCOc1cnc2ccc([C@H](C)n3nnc4ccn(-c5cc(C)ns5)c(=O)c43)cc2c1`, the solubility in [1] was 37 µg/mL (≈ 80 µM); in series [2], 8.7 µg/mL (≈ 18.8 µM); in series [3] it was 39.7 µg/mL (≈ 85.8 µM). Besides, the Activity came to 34% in [4], 26% in series [5] and 10% in series [6]. In addition, the microsomal CLint in series [7] turned out to be 89 µL/min/mg; in series [8], 68 µL/min/mg; in [9], 84 µL/min/mg. The fraction unbound is 0.018 in series [10], 0.027 in series [11] and 0.012 in series [12]. The same compound gave a clearance in [13] of 9.32 mL/min/kg. Further, the Vd in series [14] stood at 2.53 L/kg. Moreover, the half-life in series [15] is 3.4 h. In addition, the AUC(0-inf) in series [16] was 1560 ng·h/mL. In [17], this compound returned a bioavailability of 43%. In the series with Mus musculus, the inhibition in vivo at 10 mg/kg came to 89%. This compound yielded a concentration in the series with Plasma of less than 200 nM.

Regarding `O=C1c2c(nnn2Cc2ccc3ncccc3c2)CCN1c1ccccc1`, the solubility in [1] was no less than 200 µg/mL; in series [2], no less than 200 µg/mL; in series [3], 60.4 µg/mL (≈ 170 µM).

On to `Cc1cc(N2CCc3nnn(Cc4ccc5ncccc5c4)c3C2=O)sn1`, for which the solubility was 43.2 µg/mL (≈ 115 µM) in [1], 2.2 µg/mL (≈ 5.84 µM) in series [2] and less than 1 µg/mL in [3].

Turning to `Cc1cc(-n2ccc3nnn([C@@H](C)c4ccc5ncccc5c4)c3c2=O)sn1`, the solubility in [1] was no less than 200 µg/mL; in [2], 4.5 µg/mL (≈ 11.6 µM); in series [3], 22.4 µg/mL (≈ 57.7 µM).

Take `COCCOc1cnc2ccc([C@H](C)n3nnc4ccn(-c5ccc(F)c(F)c5)c(=O)c43)cc2c1`: the solubility in series [1] is 128 µg/mL (≈ 267 µM); in series [2], 11.1 µg/mL (≈ 23.2 µM); in [3] it was 37.7 µg/mL (≈ 79 µM). In addition, the microsomal CLint in [7] was 105 µL/min/mg; in [8], 98 µL/min/mg; in series [9] it was 120 µL/min/mg. For the same compound, the fraction unbound in [10] is 0.02; in series [11], 0.044; in [12], 0.045. In [13], this compound showed a clearance of 18.8 mL/min/kg. For the same compound, in series [14], the Vd was determined as 2.38 L/kg. Also, in [15], the half-life was 1.81 h. The AUC(0-inf) in series [16] stood at 638 ng·h/mL. Moreover, in series [17], the bioavailability was 36%.

As to `COCCOc1cnc2ccc(Cn3nnc4ccn(-c5cc(C)ns5)c(=O)c43)cc2c1`, the solubility in [1] was 13.7 µg/mL (≈ 30.5 µM); in series [2], 2.5 µg/mL (≈ 5.57 µM); in [3], 9.8 µg/mL (≈ 21.9 µM).
